Results as given in patent publication US10787443B2, “RAF-degrading conjugate compounds” (ZAMBONI CHEM SOLUTIONS INC., priority 2017, dated 2020).
Structures can show the parent of a compound that is named as a salt.

Tested on: GST-Braf kinase domain and biotinylated E3 substrate adapter (VHL/EloB/EloC complex or CRBN318-425)
Experiment: Dimerization assay (AlphaScreen/AlphaLisa), RAF/E3 dimerization
Format: binding
Details: relative value, compounds 4 fold serial dilutions from 20 μM

Row | Compound | RAF/E3 Dimerization (Table 17) | further results
1 | Cc1ncc(NC(=O)c2cccc(C(F)(F)F)c2)cc1-c1cnc(OCCOCCOCCOCCN[C@@H](C(=O)N2C[C@H](O)C[C@H]2C(=O)N[C@@H](C)c2ccc(-c3scnc3C)cc2)C(C)(C)C)c(N2CCOCC2)c1 [Compound 2.006, (R)-1-((2S,4R)-4-hydroxy-2-(((S)-1-(4-(4-methylthiazol-5-yl)phenyl)ethyl)carbamoyl)-pyrrolidin-1-yl)-3,3-dimethyl-N-(2-(2-(2-(2-((2′-methyl-5-morpholino-5′-(3-(trifluoro-methyl)benzamido)-[3,3′-bipyridin]-6-yl)oxy)ethoxy)ethoxy)ethoxy)ethyl)-1-oxobutan-2-aminium formate] | + (5% > RAF/E3 Dimerization) | –
2 | CCCCCCNC(=O)Nc1cc(-c2cc3cnc(NCCCCc4cn(CCCCCC(=O)N[C@@H](C(=O)N5C[C@H](O)C[C@H]5C(=O)N[C@@H](C)c5ccc(-c6scnc6C)cc5)C(C)(C)C)nn4)nc3nc2C)c(C)cc1F [Compound 2.037, (2S,4R)-1-((R)-2-(6-(4-(4-((6-(4-fluoro-5-(3-hexylureido)-2-methylphenyl)-7-methylpyrido[2,3-d]pyrimidin-2-yl)amino)butyl)-1H-1,2,3-triazol-1-yl)hexanamido)-3,3-dimethylbutanoyl)-4-hydroxy-N—((S)-1-(4-(4-methylthiazol-5-yl)phenyl)ethyl)pyrrolidine-2-carboxamide] | ++++ (75% > RAF/E3 Dimerization ≥ 50%) | –
3 | CCCCCCNC(=O)Nc1cc(-c2cc3cnc(NCCOCCOCc4cn(CCCCCC(=O)N[C@@H](C(=O)N5C[C@H](O)C[C@H]5C(=O)N[C@@H](C)c5ccc(-c6scnc6C)cc5)C(C)(C)C)nn4)nc3nc2C)c(C)cc1F [Compound 2.039, (2S,4R)-1-((R)-2-(6-(4-((2-(2-((6-(4-fluoro-5-(3-hexylureido)-2-methylphenyl)-7-methylpyrido[2,3-d]pyrimidin-2-yl)amino)ethoxy)ethoxy)methyl)-1H-1,2,3-triazol-1-yl)hexanamido)-3,3-dimethylbutanoyl)-4-hydroxy-N—((S)-1-(4-(4-methylthiazol-5-yl)phenyl)ethyl)pyrrolidine-2-carboxamide] | +++++ (RAF/E3 Dimerization ≥75%) | –
4 | Cc1ncc(NC(=O)c2cccc(C(F)(F)F)c2)cc1-c1cnc(OCCOCCOCCOCc2cn(CCCCCC(=O)Nc3cccc4c3C(=O)N(C3CCC(=O)NC3=O)C4=O)nn2)c(N2CCOCC2)c1 (centres unmarked) [Compound 1.007, N-(6′-(2-(2-(2-((1-(6-((2-(2,6-dioxopiperidin-3-yl)-1,3-dioxoisoindolin-4-yl)amino)-6-oxohexyl)-1H-1,2,3-triazol-4-yl)methoxy)ethoxy)ethoxy)ethoxy)-2-methyl-5′-morpholino-[3,3′-bipyridin]-5-yl)-3-(trifluoromethyl)benzamide] | – | RAF/E3 Dimerization (Table 15): + + +
5 | Cc1ncc(NC(=O)c2cccc(C(F)(F)F)c2)cc1-c1cnc(O[C@@H]2CCO[C@@H](COCc3cn(CCCCCC(=O)N[C@@H](C(=O)N4C[C@H](O)C[C@H]4C(=O)N[C@@H](C)c4ccc(-c5scnc5C)cc4)C(C)(C)C)nn3)C2)c(N2CCOCC2)c1 [Compound 2.005] | ++++ (75% > RAF/E3 Dimerization ≥ 50%) | –
6 | CNc1ncc2cc(-c3cc(NC(=O)NCCOCCOCC(=O)N[C@@H](C(=O)N4C[C@H](O)C[C@H]4C(=O)N[C@@H](C)c4ccc(-c5scnc5C)cc4)C(C)(C)C)c(F)cc3C)c(C)nc2n1 [Compound 2.042, (2S,4R)-1-((R)-12-(tert-butyl)-1-((2-fluoro-4-methyl-5-(7-methyl-2-(methylamino)pyrido[2,3-d]pyrimidin-6-yl)phenyl)amino)-1,10-dioxo-5,8-dioxa-2,11-diazatridecan-13-oyl)-4-hydroxy-N—((S)-1-(4-(4-methylthiazol-5-yl)phenyl)ethyl)pyrrolidine-2-carboxamide] | + (5% > RAF/E3 Dimerization) | –
7 | O=C1CCC(N2C(=O)c3cccc(NC(=O)CCCCCn4cc(COCCOCCOCCNC(=O)c5cc(Oc6ccc(NC(=O)Nc7ccc(Cl)c(C(F)(F)F)c7)cc6)ccn5)nn4)c3C2=O)C(=O)N1 (centres unmarked) [Compound 2.027, 4-(4-(3-(4-chloro-3-(trifluoromethyl)phenyl)ureido)phenoxy)-N-(2-(2-(2-((1-(6-((2-(2,6-dioxopiperidin-3-yl)-1,3-dioxoisoindolin-4-yl)amino)-6-oxohexyl)-1H-1,2,3-triazol-4-yl)methoxy)ethoxy)ethoxy)ethyl)picolinamide] | ++ (25% > RAF/E3 Dimerization ≥ 5%) | –
8 | Cc1ncc(NC(=O)c2cccc(C(F)(F)F)c2)cc1-c1cnc(OC(C)Cc2cnnn2CCCCCC(=O)Nc2cccc3c2C(=O)N(C2CCC(=O)NC2=O)C3=O)c(N2CCOCC2)c1 (racemic) [Compound 1.010, (±)-N-(6′-((1-(1-(6-((2-(2,6-dioxopiperidin-3-yl)-1,3-dioxoisoindolin-4-yl)amino)-6-oxohexyl)-1H-1,2,3-triazol-5-yl)propan-2-yl)oxy)-2-methyl-5′-morpholino-[3,3′-bipyridin]-5-yl)-3-(trifluoromethyl)benzamide] | + (5% > RAF/E3 Dimerization) | –
9 | CC(NC(=O)c1ncnc(NCc2cn(CCCCCC(=O)Nc3cccc4c3C(=O)N(C3CCC(=O)NC3=O)C4=O)nn2)c1Cl)c1ncc(C(=O)Nc2cc(C(F)(F)F)c(Cl)cn2)s1 (centres unmarked) [Compound 2.044, N-(5-chloro-4-(trifluoromethyl)pyridin-2-yl)-2-(1-(5-chloro-6-(((1-(6-((2-(2,6-dioxopiperidin-3-yl)-1,3-dioxoisoindolin-4-yl)amino)-6-oxohexyl)-H-1,2,3-triazol-4-yl)methyl)amino)pyrimidine-4-carboxamido)ethyl)thiazole-5-carboxamide] | + (5% > RAF/E3 Dimerization) | –
10 | O=C1CCC(N2Cc3c(CCCOCCNC(=O)c4cc(Oc5ccc(NC(=O)Nc6ccc(Cl)c(C(F)(F)F)c6)cc5)ccn4)cccc3C2=O)C(=O)N1 (centres unmarked) [Compound 2.032, 4-(4-(3-(4-chloro-3-(trifluoromethyl)phenyl)ureido)phenoxy)-N-(2-(3-(2-(2,6-dioxopiperidin-3-yl)-1-oxoisoindolin-4-yl)propoxy)ethyl)picolinamide] | + (5% > RAF/E3 Dimerization) | –
11 | Cc1ccc(NC(=O)c2cccc(C(F)(F)F)c2)cc1-c1cnc(OC(C)Cc2cnnn2CCCCCC(=O)Nc2cccc3c2C(=O)N(C2CCC(=O)NC2=O)C3=O)c(N2CCOCC2)c1 (racemic) [Compound 1.011, (±)-N-(3-(6-((1-(1-(6-((2-(2,6-dioxopiperidin-3-yl)-1,3-dioxoisoindolin-4-yl)amino)-6-oxohexyl)-1H-1,2,3-triazol-5-yl)propan-2-yl)oxy)-5-morpholinopyridin-3-yl)-4-methylphenyl)-3-(trifluoromethyl)benzamide] | + (5% > RAF/E3 Dimerization) | –
12 | CCCCCCNC(=O)Nc1cc(-c2cc3cnc(NCCCCc4cn(CCCCCC(=O)Nc5cccc6c5C(=O)N(C5CCC(=O)NC5=O)C6=O)nn4)nc3nc2C)c(C)cc1F (centres unmarked) [Compound 2.036, N-(2-(2,6-dioxopiperidin-3-yl)-1,3-dioxoisoindolin-4-yl)-6-(4-(4-((6-(4-fluoro-5-(3-hexylureido)-2-methylphenyl)-7-methylpyrido[2,3-d]pyrimidin-2-yl)amino)butyl)-1H-1,2,3-triazol-1-yl)hexanamide] | ++ (25% > RAF/E3 Dimerization ≥ 5%) | –
13 | Cc1ncc(NC(=O)c2cccc(C(F)(F)F)c2)cc1-c1cnc(OCCOCCOCCOCC(=O)N[C@@H](C(=O)N2C[C@H](O)C[C@H]2C(=O)N[C@@H](C)c2ccc(-c3scnc3C)cc2)C(C)(C)C)c(N2CCOCC2)c1 [Compound 1.013, (2S,4R)-1-((R)-2-(tert-butyl)-14-((2′-methyl-5-morpholino-5′-(3-(trifluoromethyl)benza-mido)-[3,3′-bipyridin]-6-yl)oxy)-4-oxo-6,9,12-trioxa-3-azatetradecan-1-oyl)-4-hydroxy-N—((S)-1-(4-(4-methylthiazol-5-yl)phenyl)ethyl)pyrrolidine-2-carboxamide] | – | RAF/E3 Dimerization (Table 16): + + +
14 | O=C1CCC(N2C(=O)c3cccc(NC(=O)CCCCCn4cc(CNC(=O)c5cc(Oc6ccc(NC(=O)Nc7ccc(Cl)c(C(F)(F)F)c7)cc6)ccn5)nn4)c3C2=O)C(=O)N1 (centres unmarked) [Compound 2.024, 4-(4-(3-(4-chloro-3-(trifluoromethyl)phenyl)ureido)phenoxy)-N-((1-(6-((2-(2,6-dioxopiperidin-3-yl)-1,3-dioxoisoindolin-4-yl)amino)-6-oxohexyl)-1H-1,2,3-triazol-4-yl)methyl)picolinamide] | ++ (25% > RAF/E3 Dimerization ≥ 5%) | –
15 | Cc1ncc(NC(=O)c2cccc(C(F)(F)F)c2)cc1-c1cnc(OCCOCCOCCOCCOCCOCc2cn(CCCCCC(=O)Nc3cccc4c3C(=O)N(C3CCC(=O)NC3=O)C4=O)nn2)c(N2CCOCC2)c1 (centres unmarked) [Compound 1.008, N-(6′-((1-(1-(6-((2-(2,6-dioxopiperidin-3-yl)-1,3-dioxoisoindolin-4-yl)amino)-6-oxohexyl)-1H-1,2,3-triazol-4-yl)-2,5,8,11,14-pentaoxahexadecan-16-yl)oxy)-2-methyl-5′-morpholino-[3,3′-bipyridin]-5-yl)-3-(trifluoromethyl)benzamide] | – | RAF/E3 Dimerization (Table 15): + + +
16 | Cc1ncc(NC(=O)c2cccc(C(F)(F)F)c2)cc1-c1cnc(OCc2cn(CCCCCC(=O)Nc3cccc4c3C(=O)N(C3CCC(=O)NC3=O)C4=O)nn2)c(N2CCOCC2)c1 (centres unmarked) [Compound 1.001, N-(6′-((1-(6-((2-(2,6-dioxopiperidin-3-yl)-1,3-dioxoisoindolin-4-yl)amino)-6-oxohexyl)-1H-1,2,3-triazol-4-yl)methoxy)-2-methyl-5′-morpholino-[3,3′-bipyridin]-5-yl)-3-(trifluoromethyl)benzamide] | – | RAF/E3 Dimerization (Table 15): + +
17 | O=C1CCC(N2C(=O)c3cccc(NC(=O)CCCCCn4cc(COCCOCCOCCOCCOCCNC(=O)c5cc(Oc6ccc(NC(=O)Nc7ccc(Cl)c(C(F)(F)F)c7)cc6)ccn5)nn4)c3C2=O)C(=O)N1 (centres unmarked) [Compound 2.028, 4-(4-(3-(4-chloro-3-(trifluoromethyl)phenyl)ureido)phenoxy)-N-(1-(1-(6-((2-(2,6-dioxopiperidin-3-yl)-1,3-dioxoisoindolin-4-yl)amino)-6-oxohexyl)-1H-1,2,3-triazol-4-yl)-2,5,8,11,14-pentaoxahexadecan-16-yl)picolinamide] | ++ (25% > RAF/E3 Dimerization ≥ 5%) | –
